Measured values: ChEMBL document CHEMBL1133001, “Protection against oxidative damage by iron chelators: effect of lipophilic analogues and prodrugs of N,N'-bis(3,4,5-trimethoxybenzyl)ethylenediamine- N,N'-diacetic acid (OR10141)” (J Med Chem, 2000)

Experiment: Compound was tested for inhibition of hydrogen peroxide toxicity against human skin fibroblasts
Assay type: functional

## CCCCCCCOc1c(OC)cc(CN(CCN(CC(=O)O)Cc2cc(OC)c(OCCCCCCC)c(OC)c2)CC(=O)O)cc1OC
  IC50: 50 µM

## COc1cc(CN(CCN(CC(=O)OCOC(C)=O)Cc2cc(OC)c(OC)c(OC)c2)CC(=O)OCOC(C)=O)cc(OC)c1OC
  IC50: 3 µM
